Assay results: ChEMBL document CHEMBL1201862, “PubChem BioAssay data set” (2004)
Activity calls are given as the source filed them. Cut-off read from the data, not from the text of the source, for most assays here: actives have a measured EC50 and inactives only a lower limit.

Legend:
[1] = viability of uninfected HEp-2 cells – cell-based, HTS, cytotoxicity control for RSV inhibitor project, dose response (AID 2410); format: functional; details: human respiratory syncytial virus
Vero = assay: viability of Vero cells under compound – cytotoxicity control for flavivirus capping enzyme inhibitors (AID 588742); format: functional; details: Chlorocebus sabaeus
Streptococcus = assay: GAS UMAA2166 growth inhibition – luminescence, BacTiterGlo, counter-screen for streptokinase expression inhibitor project, dose response (AID 1915); format: functional, organism-based;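 note: potency for reduction of bacterial viability or growth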
[2] = fluconazole-exposed Candida albicans growth modulators – fluorescence, retest, confirmation (AID 2467); format: functional, cell-based
[3] = test system: Streptococcus sp. 'group A'; assay: Streptococcus pyogenes SK(-)GAS viability under kanamycin – luminescence, BacTiterGlo, confirmation, counter-screen for streptokinase expression inhibitor project, dose response (AID 1900); format: functional, organism-based
[4] = NIH-3T3 fibroblast cytotoxicity, dose response, cytotoxicity control, cell-based, fluorescence, Alamar Blue, secondary assay (AID 2327); format: functional;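 note: NIH-3T3 mouse fibroblasts cultured with fluconazole at 8 µg/mL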
[5] = molecular target: T1, Serine/threonine-protein phosphatase (Candida dubliniensis (strain CD36 / CBS 7987 / NCPF 3949 / NRRLY-17841) (Yeast), UniProt B9W6M3); assay: blockers of CaCl2-induced CDRE-lacZ signaling – S. cerevisiae, luminescence, secondary, dose response (AID 2388); format: functional, cell-based;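 note: yeast reporter cells carrying a calcineurin-responsive lacZ construct stimulated with calcium chloride; luminescent beta-galactosidase reporter signal in whole cells rather than isolated phosphatase activity; potency for inhibition where a drop in reporter signal means calcineurin blockade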
T1 sequence (B9W6M3 whole entry): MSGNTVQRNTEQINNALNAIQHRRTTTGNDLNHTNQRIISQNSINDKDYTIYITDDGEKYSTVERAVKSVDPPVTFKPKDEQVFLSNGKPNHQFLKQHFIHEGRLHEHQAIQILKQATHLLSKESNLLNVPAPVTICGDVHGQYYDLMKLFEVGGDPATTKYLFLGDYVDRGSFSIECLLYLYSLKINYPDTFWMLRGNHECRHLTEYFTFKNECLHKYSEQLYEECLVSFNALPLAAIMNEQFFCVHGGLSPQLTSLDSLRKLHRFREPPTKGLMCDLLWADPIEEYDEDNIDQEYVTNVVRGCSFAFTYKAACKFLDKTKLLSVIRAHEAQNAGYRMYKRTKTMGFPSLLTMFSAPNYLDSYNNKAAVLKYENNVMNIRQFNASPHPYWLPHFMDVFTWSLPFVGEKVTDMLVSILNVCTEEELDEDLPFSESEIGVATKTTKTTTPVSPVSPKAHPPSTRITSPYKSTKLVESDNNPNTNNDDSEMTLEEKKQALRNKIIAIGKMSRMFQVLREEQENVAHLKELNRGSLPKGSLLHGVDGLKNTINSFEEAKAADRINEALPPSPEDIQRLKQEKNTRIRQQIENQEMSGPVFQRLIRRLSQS

NS3 = NS3 (Hepatitis C virus, UniProt A3EZJ3); assay: PubChem AID 2173; parameters: species or system Hepacivirus hominis
[6] = molecular target: ATP-dependent molecular chaperone HSP82 (Candida albicans (strain WO-1) (Yeast), UniProt C4YTQ8); assay: steroid-induced GRE reporter decrease in yeast – S. cerevisiae, luminescence, Hsp90 inhibitor project, dose response (AID 2400); format: functional, cell-based;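 note: beta-galactosidase luminescence from glucocorticoid response element reporter as proxy for Hsp90 function; inhibitor potency where signal loss means Hsp90 inhibition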
[7] = molecular target: Heat shock protein HSP 90-alpha (Homo sapiens, UniProt P07900); format: functional, organism-based
Genome polyprotein = Genome polyprotein (dengue virus type 2, UniProt P29990); assay: flavivirus cap methylation enzyme inhibition – biochemical, confirmation dose response, primary screen (AID 588689); format: functional
[8] = Luminescence Cell-Based Dose Response to Identify Activators of Luciferase Translation or Activity in H4-C Neuroglioblastoma Cells. [Related pubchem assays: 1829 (Project Summary), 1814 (Primary HTS)]; format: functional
[9] = Luminescence Cell-Based Dose Response to Identify Activators of 5'UTR Stem-Loop Driven Prion Protein mRNA Translation in H4-C Neuroglioblastoma Cells. [Related pubchem assays: 1829 (Project Summary), 1814 (Primary HTS)]; format: functional
[10] = molecular target: T2, Calpain-2 catalytic subunit (Sus scrofa, UniProt P43367); assay: m-calpain protease blockers, concentration series – biochemical, fluorogenic peptide substrate, dose response (AID 1420); format: functional
T2 sequence (P43367 whole entry): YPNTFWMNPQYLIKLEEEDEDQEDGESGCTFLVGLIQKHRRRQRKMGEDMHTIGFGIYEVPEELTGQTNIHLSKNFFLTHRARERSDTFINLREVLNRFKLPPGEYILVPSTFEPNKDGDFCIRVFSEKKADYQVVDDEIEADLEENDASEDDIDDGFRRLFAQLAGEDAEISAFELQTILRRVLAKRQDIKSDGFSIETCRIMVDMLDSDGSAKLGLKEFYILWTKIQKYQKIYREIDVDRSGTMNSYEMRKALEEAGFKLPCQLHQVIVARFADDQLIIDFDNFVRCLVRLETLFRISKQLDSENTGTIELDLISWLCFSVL

HT-1080 = assay: HT1080 cell viability loss – fluorescence readout (AID 620); format: functional, cell-based; details: Homo sapiens
[11] = molecular target: Luciferin 4-monooxygenase (Photinus pyralis, UniProt P08659); assay: Counter Screen for Luciferase-based Assay Positives. [Related pubchem assays: 620, 618, 411 ]
[12] = Luminescence Cell-Based Dose Response HTS to Identify Activators of Luciferase Translation or Activity in H4 […] Cells. [Related pubchem assays: 1829 (Project Summary), 1814 (Primary HTS)]; format: functional
[13] = Luminescence Cell-Based Dose Confirmation to Identify Activators of 5'UTR Stem-Loop Driven Alpha-Synuclein mRNA Translation in H4 Neuroglioblastoma Cells. [Related pubchem assays: 1829 (Project Summary), 1814 (Primary HTS)]; format: functional
Prothrombin = Prothrombin (Bos taurus, UniProt P00735); assay: thrombin protease inhibitors – biochemical, fluorescence polarization, uHTS hits, dose response (AID 602369); format: functional
[14] = molecular target: 72 kDa type IV collagenase (Homo sapiens, UniProt P08253); assay: Dose Response validation of uHTS RPN11 inhibitor hits using a MMP-2 Fluorescence assay.; format: functional
[15] = mitochondrial function rescue without frataxin homolog – Friedreich's ataxia, plus single-dose screen, dose response (AID 1465); format: functional;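 note: yeast depleted of Yfh1p frataxin homolog grown on glycerol needing respiration; WST-1 tetrazolium dye reduction as measure of cellular dehydrogenase metabolic activity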
[16] = molecular target: 26S proteasome non-ATPase regulatory subunit 14 (Homo sapiens, UniProt O00487); assay: inhibition of proteasome subunit RPN11 – biochemical, fluorescence polarization, uHTS hits, confirmation (AID 602368); format: functional
Chain of 26S proteasome non-ATPase regulatory subunit 14 (O00487 whole entry): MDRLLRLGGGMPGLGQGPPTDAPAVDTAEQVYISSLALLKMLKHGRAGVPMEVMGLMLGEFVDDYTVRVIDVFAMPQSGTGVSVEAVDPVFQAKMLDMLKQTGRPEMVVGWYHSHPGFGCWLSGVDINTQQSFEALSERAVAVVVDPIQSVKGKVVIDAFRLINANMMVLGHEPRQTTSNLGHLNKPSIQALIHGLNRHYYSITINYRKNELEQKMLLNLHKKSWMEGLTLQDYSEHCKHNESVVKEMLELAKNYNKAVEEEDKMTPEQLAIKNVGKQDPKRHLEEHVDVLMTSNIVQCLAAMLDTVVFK

Chain of Genome polyprotein (P29990 2492-3391 limits assumed): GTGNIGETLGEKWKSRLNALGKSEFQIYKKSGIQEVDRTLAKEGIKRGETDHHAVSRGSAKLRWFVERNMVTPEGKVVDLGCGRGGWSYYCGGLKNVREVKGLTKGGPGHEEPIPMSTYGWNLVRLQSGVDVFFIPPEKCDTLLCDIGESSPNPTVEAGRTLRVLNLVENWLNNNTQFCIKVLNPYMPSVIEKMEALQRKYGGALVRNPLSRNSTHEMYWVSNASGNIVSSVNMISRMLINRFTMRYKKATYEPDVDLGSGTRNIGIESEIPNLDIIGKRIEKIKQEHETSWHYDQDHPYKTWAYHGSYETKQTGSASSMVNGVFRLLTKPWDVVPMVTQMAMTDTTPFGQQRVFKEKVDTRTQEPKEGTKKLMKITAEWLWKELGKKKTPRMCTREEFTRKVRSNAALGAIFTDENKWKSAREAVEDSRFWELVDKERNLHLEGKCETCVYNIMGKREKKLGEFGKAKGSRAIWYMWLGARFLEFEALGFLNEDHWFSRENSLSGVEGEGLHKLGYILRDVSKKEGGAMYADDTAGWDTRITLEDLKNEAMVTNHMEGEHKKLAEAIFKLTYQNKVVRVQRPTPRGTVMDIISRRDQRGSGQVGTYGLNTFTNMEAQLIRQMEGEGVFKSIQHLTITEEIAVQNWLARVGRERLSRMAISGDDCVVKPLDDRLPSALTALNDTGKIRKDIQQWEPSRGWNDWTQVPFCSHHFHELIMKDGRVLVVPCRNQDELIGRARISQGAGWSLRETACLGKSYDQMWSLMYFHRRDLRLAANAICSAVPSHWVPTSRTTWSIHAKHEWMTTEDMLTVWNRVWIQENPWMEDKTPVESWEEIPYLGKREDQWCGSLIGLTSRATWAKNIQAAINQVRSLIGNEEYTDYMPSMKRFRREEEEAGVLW
Chain of 72 kDa type IV collagenase (P08253 whole entry): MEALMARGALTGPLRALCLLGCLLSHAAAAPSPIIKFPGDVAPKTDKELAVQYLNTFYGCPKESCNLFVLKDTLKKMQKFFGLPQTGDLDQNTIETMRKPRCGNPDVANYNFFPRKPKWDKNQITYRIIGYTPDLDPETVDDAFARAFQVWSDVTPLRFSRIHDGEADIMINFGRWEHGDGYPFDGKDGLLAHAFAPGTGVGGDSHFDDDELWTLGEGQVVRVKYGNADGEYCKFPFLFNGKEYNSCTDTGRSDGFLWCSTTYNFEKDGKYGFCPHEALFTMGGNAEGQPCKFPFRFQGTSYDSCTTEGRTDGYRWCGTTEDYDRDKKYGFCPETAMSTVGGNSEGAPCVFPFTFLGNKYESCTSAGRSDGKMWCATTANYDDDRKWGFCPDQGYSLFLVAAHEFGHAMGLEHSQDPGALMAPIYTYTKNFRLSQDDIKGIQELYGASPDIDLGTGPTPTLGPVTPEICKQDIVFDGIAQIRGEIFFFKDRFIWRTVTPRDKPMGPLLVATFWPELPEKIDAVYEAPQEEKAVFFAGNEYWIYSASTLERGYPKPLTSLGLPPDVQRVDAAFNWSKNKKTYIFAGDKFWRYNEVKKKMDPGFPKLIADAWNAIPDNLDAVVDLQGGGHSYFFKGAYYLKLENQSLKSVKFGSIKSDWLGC
Chain of ATP-dependent molecular chaperone HSP82 (C4YTQ8 whole entry): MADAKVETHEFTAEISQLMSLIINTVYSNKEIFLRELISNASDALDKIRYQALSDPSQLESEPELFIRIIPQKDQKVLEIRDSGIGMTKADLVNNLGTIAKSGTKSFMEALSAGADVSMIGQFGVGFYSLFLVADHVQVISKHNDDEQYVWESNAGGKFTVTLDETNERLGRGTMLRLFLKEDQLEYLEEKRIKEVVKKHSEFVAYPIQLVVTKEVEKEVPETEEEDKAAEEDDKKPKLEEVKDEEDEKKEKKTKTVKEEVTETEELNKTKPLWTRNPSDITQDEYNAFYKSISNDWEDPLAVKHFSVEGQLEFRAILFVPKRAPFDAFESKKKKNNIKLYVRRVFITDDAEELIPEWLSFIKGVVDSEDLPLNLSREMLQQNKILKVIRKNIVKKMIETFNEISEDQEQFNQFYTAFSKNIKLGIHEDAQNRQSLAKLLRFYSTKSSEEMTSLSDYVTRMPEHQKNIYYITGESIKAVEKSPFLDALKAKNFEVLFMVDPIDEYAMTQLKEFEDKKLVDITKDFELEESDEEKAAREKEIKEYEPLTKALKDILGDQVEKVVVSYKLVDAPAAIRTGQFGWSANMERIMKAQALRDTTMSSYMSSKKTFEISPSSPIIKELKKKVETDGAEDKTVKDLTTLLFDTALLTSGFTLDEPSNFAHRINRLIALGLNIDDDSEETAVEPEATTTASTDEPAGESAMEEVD
Chain of NS3 (A3EZJ3 whole entry): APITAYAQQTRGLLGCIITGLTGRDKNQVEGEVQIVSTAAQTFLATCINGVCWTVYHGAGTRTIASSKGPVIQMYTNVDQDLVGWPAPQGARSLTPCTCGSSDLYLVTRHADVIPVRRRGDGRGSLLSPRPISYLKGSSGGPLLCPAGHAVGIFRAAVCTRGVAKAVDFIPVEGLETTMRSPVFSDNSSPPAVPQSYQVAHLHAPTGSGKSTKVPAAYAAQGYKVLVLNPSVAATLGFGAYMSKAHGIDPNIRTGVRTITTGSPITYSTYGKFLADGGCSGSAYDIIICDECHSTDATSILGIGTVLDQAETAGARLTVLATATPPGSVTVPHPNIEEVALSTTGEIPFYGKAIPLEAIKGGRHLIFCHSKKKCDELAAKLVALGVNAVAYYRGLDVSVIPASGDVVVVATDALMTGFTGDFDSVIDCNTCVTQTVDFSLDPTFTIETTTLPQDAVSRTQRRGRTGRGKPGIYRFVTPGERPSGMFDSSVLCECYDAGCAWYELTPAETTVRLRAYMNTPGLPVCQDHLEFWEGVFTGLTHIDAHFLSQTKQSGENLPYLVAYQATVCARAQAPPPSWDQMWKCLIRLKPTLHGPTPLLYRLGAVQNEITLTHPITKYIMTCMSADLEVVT
Chain of Luciferin 4-monooxygenase (P08659 whole entry): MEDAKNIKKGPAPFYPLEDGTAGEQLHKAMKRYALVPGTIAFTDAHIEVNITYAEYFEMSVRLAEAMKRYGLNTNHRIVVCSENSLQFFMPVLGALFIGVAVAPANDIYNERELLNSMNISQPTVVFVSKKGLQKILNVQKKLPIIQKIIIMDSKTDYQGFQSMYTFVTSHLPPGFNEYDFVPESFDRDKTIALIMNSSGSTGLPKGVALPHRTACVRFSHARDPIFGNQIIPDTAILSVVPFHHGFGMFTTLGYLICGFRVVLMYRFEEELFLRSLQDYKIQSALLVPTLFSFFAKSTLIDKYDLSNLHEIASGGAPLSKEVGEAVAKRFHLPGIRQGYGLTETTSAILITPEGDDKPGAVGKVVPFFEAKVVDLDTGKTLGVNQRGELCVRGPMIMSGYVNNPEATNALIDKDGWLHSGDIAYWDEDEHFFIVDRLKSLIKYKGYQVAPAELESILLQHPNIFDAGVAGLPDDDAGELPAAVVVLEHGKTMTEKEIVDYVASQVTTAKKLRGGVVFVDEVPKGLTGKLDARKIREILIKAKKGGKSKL

SMILES: Nc1ccc(Cc2nc3cc4ccccc4cc3[nH]2)cc1
- CC50 [1]: > 50 µM (active)
- IC50 (cells): 15.1 µM (active)

SMILES: O=C1C=CC(=NNc2ccccc2)C=CC1=O
- CC50 (Vero): 23 µM (active)
- EC50 (Streptococcus): 9.57 µM (active)
- EC50 [2]: 0.237 µM (active)
- EC50 [3]: 2.86 µM (active)
- EC50 [4]: > 160 µM (inactive)
- EC50 [5]: 2.47 µM (active)
- IC50 (NS3): 12.6 µM (not active)
- EC50 [6]: 0.887 µM (active)
- AC50 [7]: 2.02 µM (active)
- IC50 (Genome polyprotein): 91.2 µM (active)

SMILES: O=C(c1cccc(COc2ccc(Cl)cc2Cl)c1)N1CCN(c2ccccn2)CC1
- EC50 [8]: 0.242 µM (active)
- EC50 [9]: 0.275 µM (active)
- IC50 [10]: > 50 µM (not active)
- EC50 (HT-1080): > 50 µM (not active)
- EC50 [11]: 46.5 µM (active)
- EC50 [12]: < 0.1 µM (inconclusive)
- EC50 [13]: 0.251 µM (active)

SMILES: CC(C)NC(=S)N/N=C/c1sc(N2CCCCC2)nc1-c1cccs1
- IC50 (Prothrombin): 20.1 µM (active)
- IC50 [14]: 9.6 µM (active)
- EC50 [15]: > 100 µM (active)
- IC50 [16]: 9.24 µM (active)
